Data on one compound can be found in patent US7563951B2, “Soybean seeds and plants exhibiting natural herbicide resistance” (Natural Genes, Inc., priority 2002, dated 2009).

In the assay the test system is soybean seeds. As to the kind of experiment: Seed pre-soak in 2 percent aqueous glyphosate, then planting and observing germination. In kind it is in vivo, Glycine max L. The note with it: six hour soak at room temperature, observed three weeks. The text has this:
The identification of soybean germplasm within which naturally-occurring herbicide resistance genes reside involved the screening of thirty-four soybean lines obtained from publicly-available seed stocks. The initial step in the screening was to pre-soak individual batches of seeds representing the thirty-four test lines in a 2 percent aqueous solution of glyphosate at room temperature. The individual batches of seeds were immersed in this 2 percent solution for a period of six hours. […] This screening step was essential to determine how seeds responded to the herbicide. Twelve of the varieties were present as approximately 2,500 seeds. There were approximately 5,000 seeds of the remaining 22 varieties. Each variety was immersed in separate containers to assure variety identification and isolation. The varieties that were tested are identified in Table 1.
After this initial pre-soak, each lot of seeds was labeled and was placed in a flat (36″×18″×9″) containing a soil/peat mixture growth medium, with the mixture being 50 percent top soil (sandy loam) and 50 percent peat moss, that was provided at a depth of 9 inches. […]
Germination and emergence of any seedlings was then observed for the next three weeks. […] Of these five lines, the ‘Dwight’ and ‘Jack’ varieties were chosen for further screening using large quantities of seeds.

With `O=C(O)CNCP(=O)(O)O` [glyphosate, N-(phosphonomethyl)glycine], the “Germination of herbicide-treated soybean seeds” value was “failed to germinate”.
